# Test results: the supplement of paper PMC10307832
# Assays:
# [1] = compound: C[C@]1(c2nc3c(C(N)=O)cccc3[nH]2)CCCN1 [Veliparib] + COc1cc2c(Oc3ccc(NC(=O)C4(C(=O)Nc5ccc(F)cc5)CC4)cc3F)ccnc2cc1OCCCN1CCOCC1 [Foretinib] (partner 0.25 µM); assay: relative viability (nuclei count vs DMSO), 5 days (fraction); higher = more cells survive
# Summary of the method: (§1)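 A single step with final 0.05% Triton X-100, 1% formaldehyde and 1 ug/ml Hoechst fixed the cells and stained nuclei 5 days after treatment. Lung cancer cell lines in 1536-well plates had been treated by pin tool the day after seeding with one drug alone or a fixed anchor-drug dose plus five library-drug doses (not always all listed) in √10 steps, and nuclei were counted on 4× images. Relative viability is the ratio of nuclei in treated wells to nuclei in vehicle wells, taken as the median of duplicate plates.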
# [2] = compound: COC1=CC=C(C=C1)CN2C=CC3=C2C=C(C=C3)C(=O)NO + CC1(C)CCC(c2ccc(Cl)cc2)=C(CN2CCN(c3ccc(C(=O)NS(=O)(=O)c4ccc(N[C@H](CCN5CCOCC5)CSc5ccccc5)c(S(=O)(=O)C(F)(F)F)c4)cc3)CC2)C1 [Navitoclax] (partner 0.5 µM); assay: as above
# Summary of the method: as §1
Cell Line,relative viability ([1]; first compound 0.02 µM),relative viability ([1]; first compound 0.06325 µM),relative viability ([1]; first compound 0.2 µM),relative viability ([1]; first compound 0.6325 µM),relative viability ([1]; first compound 2 µM),relative viability ([2]; first compound 0.08 µM),relative viability ([2]; first compound 0.253 µM),relative viability ([2]; first compound 0.8 µM),relative viability ([2]; first compound 2.53 µM),relative viability ([2]; first compound 8 µM)
NCI-H358,0.723,0.647,0.623,0.625,0.573,,,,,
IA-LM,1.3,1.21,1.2,1.16,1.12,0.675,0.882,1.02,0.851,0.695
201T,,,1.2,1.03,1.14,1.19,1.24,1.22,1.23,1.19
LOU-NH91,0.9,0.889,0.977,0.924,0.97,0.419,0.677,0.739,0.725,0.576
ChaGo-K-1,0.874,0.873,0.845,0.784,0.923,,0.932,1.13,0.911,0.887
NCI-H441,0.905,0.738,0.992,0.877,0.948,0.611,0.708,0.701,0.523,0.595
ABC-1,,0.858,1.12,0.961,1.15,,,,,
NCI-H661,0.999,1.02,0.866,0.892,0.998,,,,,
BEN,0.413,0.482,0.724,0.656,0.569,0.0556,0.0746,0.0683,0.156,0.0729
UMC-11,1.29,0.959,0.998,0.948,1.02,0.197,0.341,0.316,0.317,0.339
NCI-H2023,0.78,0.691,0.852,0.885,0.788,0.94,1.07,0.946,0.994,0.98
NCI-H2126,1.19,1.2,1.26,1.31,1.1,0.824,0.931,0.849,0.848,0.886
EMC-BAC-2,0.999,0.911,1.11,1.01,1.02,0.993,1.21,1.16,1.21,1.15
NCI-H838,1.09,0.987,1.04,0.967,1.06,,1.22,1.17,1.22,1.09
NCI-H322M,,0.948,0.871,1,0.937,,1.1,1.13,1.18,1.24
HCC-15,,1.01,1.05,1.05,1.06,0.605,0.726,0.717,0.741,0.675
NCI-H1395,0.956,0.898,0.957,0.795,0.806,0.688,1.29,1.12,1.4,0.992
NCI-H596,0.967,0.823,1.02,0.773,0.75,0.944,0.906,1.07,0.963,1.04

Cell Line,relative viability ([1]; first compound 0.02 µM),relative viability ([1]; first compound 0.06325 µM),relative viability ([1]; first compound 0.2 µM),relative viability ([1]; first compound 0.6325 µM),relative viability ([1]; first compound 2 µM),relative viability ([2]; first compound 0.08 µM),relative viability ([2]; first compound 0.253 µM),relative viability ([2]; first compound 0.8 µM),relative viability ([2]; first compound 2.53 µM),relative viability ([2]; first compound 8 µM)
PC-3 [JPC-3],1.01,1.06,0.968,0.975,0.983,0.822,0.831,0.83,0.859,0.74
NCI-H23,1.08,0.882,1.01,0.935,1.08,0.675,0.689,0.896,0.985,0.728
SK-MES-1,1,0.799,0.995,0.837,1.01,1.2,1.3,1.26,1.2,1.02
NCI-H1651,0.793,0.74,0.762,0.724,0.692,0.926,1.14,1.07,0.987,0.92
SK-LU-1,0.874,0.756,0.899,0.644,0.902,0.849,1,1,0.815,0.745
NCI-H727,1.22,0.66,0.816,0.694,1.04,0.342,0.404,0.404,0.543,0.341
NCI-H3122,1,0.926,0.912,0.943,0.966,1.01,1,1.02,1.02,1.03
HOP-62,1.17,0.983,0.99,1.13,1.22,0.547,0.984,1.02,1.08,1.02
LC-2-ad,,0.894,0.903,0.837,0.939,0.421,0.427,0.561,0.527,0.552
EKVX,0.395,0.386,0.728,0.834,0.533,0.934,1,0.968,0.988,0.952
LCLC-103H,0.712,0.711,0.95,0.701,0.767,,,,,
NCI-H1703,,,0.42,0.321,0.355,1.49,1.09,1.27,1.01,1.08
LU99A,0.75,0.744,0.752,0.663,0.721,,0.787,0.803,0.847,0.878
NCI-H520,0.824,0.763,0.805,0.601,0.647,0.279,1.18,1.27,1.15,1.09
COR-L23,0.958,0.987,0.956,0.962,0.866,0.77,0.945,1.04,1.11,1.01
NCI-H1437,1.12,1.17,1.2,1.24,1.23,0.898,1.08,1.1,1.15,1.05
HARA,0.898,1.06,0.866,0.851,0.828,0.479,1.1,1.13,1.17,1.14
